In paper PMC6273433, “Design, Synthesis and Cytotoxicity of Novel Dihydroartemisinin-Coumarin Hybrids via Click Chemistry” (Molecules, 2016):
Like-named read-outs stand apart in the source and are kept apart here.

Tests used:
[1] = test system: HCT-116 (human colorectal cancer cell line); assay: MTT cytotoxicity assay, HCT-116 under anoxia or normoxia; type: cell-based; conditions: for HCT-116 Value = IC50(normoxia)/IC50(anoxia): HCT-116, activity promotion under anoxia, >100 set as 100; for IC50: Homo sapiens
Experimental: (§1) We focused our attention on the cytotoxicity of the four series of newly-synthesized compounds (10a–e, 11a–e, 12a–e, and 13a–e) under normoxic or anoxic conditions.
(§2) The data was calculated by the Logit method and presented as IC50 values in Table 1.
(§3) All of the newly-synthesized compounds were screened for in vitro cytotoxicity by MTT assay. The exponentially-growing MRC-5, HCT-116, MDA-MB-231, and HT-29 cells were allowed to grow until 80% confluency, the culture medium was discarded, digested with trypsin, separated centrifugally, then fresh culture medium was added and blown gently into single-cell suspension. Then, the cell suspension was seeded into each well of 96-well microculture plates at a concentration of 1.5 × 10^3–3 × 10^3 cells/well.
(§4) The cells were incubated with 50 μL of 2 mg/mL MTT solution for 4 h in a humidified incubator. The supernatant was discarded, and the media were then replaced with 200 μL of dimethyl sulfoxide to dissolve the purple colored formazan crystals formed in the wells, and their absorbances were measured at 492 nm with a microplate reader (Synergy-HT, BioTek Instruments, Winooski, VT, USA); 200 μL DMSO was set as the blank control.
(§5) The anoxia condition was achieved by placing cells in a sealed hypoxia incubator chamber (Catalog Number 27310, Stemcell Technologies, Inc., Vancouver, BC, Canada) filled with 5% CO2 and 95% N2.

[2] = test system: MRC-5 (human fetal lung fibroblast cells, normal lung cell); assay: MTT cytotoxicity assay, MRC-5 normal cells; type: cell-based; conditions: MRC5, MRC-5, normoxia, 96 h MTT
Experimental: as §1, §2, §3, §4

[3] = test system: HT-29 (human colon carcinoma cell line, overexpresses high amounts of CA IX); assay: MTT cytotoxicity assay, HT-29 under anoxia or normoxia; type: cell-based; conditions: for HT-29 Value = IC50(normoxia)/IC50(anoxia): HT-29, activity promotion under anoxia; for IC50: Homo sapiens
Experimental: as §1, §2, §3, §4, §5

[4] = test system: MDA-MB-231 (human breast carcinoma cell line, CA IX negative); assay: MTT cytotoxicity assay, MDA-MB-231 under anoxia or normoxia; type: cell-based; conditions: for IC50: Homo sapiens; for MDA-MB-231 Value = IC50(normoxia)/IC50(anoxia): MDA-MB-231, activity promotion under anoxia, >100 set as 100
Experimental: as §1, §2, §3, §4, §5

[5] = MTT cytotoxicity assay, summary statements over all cell lines; type: cell-based; conditions: human, MRC-5, HCT-116, MDA-MB-231 and HT-29 cells; 96 h MTT assay, four cell lines, normoxic or anoxic
Experimental: as §1, §2, §3, §4, §5

[6] = HCT-116, anoxia 24 h then normoxia 72 h, MTT, read-out: IC50 HCT-116 Anoxia
[7] = HCT-116, normoxia, 96 h MTT, read-out: IC50 HCT-116 Normoxia
[8] = HT-29, anoxia 24 h then normoxia 72 h, MTT, read-out: IC50 HT-29 Anoxia
[9] = HT-29, normoxia, 96 h MTT, read-out: IC50 HT-29 Normoxia
[10] = MDA-MB-231, anoxia 24 h then normoxia 72 h, MTT, read-out: IC50 MDA-MB-231 Anoxia
[11] = MDA-MB-231, normoxia, 96 h MTT, read-out: IC50 MDA-MB-231 Normoxia

| SMILES | melting point [°C] | HCT-116 Value = IC50(normoxia)/IC50(anoxia) [1] | IC50 [1, 6] [µM] | IC50 [1, 7] [µM] | IC50 [2] [µM] | HT-29 Value = IC50(normoxia)/IC50(anoxia) [3] | IC50 [3, 8] [µM] | IC50 [3, 9] [µM] | IC50 [4, 10] [µM] | IC50 [4, 11] [µM] | MDA-MB-231 Value = IC50(normoxia)/IC50(anoxia) [4] | IC50 at 96 h [5] [µM] |
| --- | --- | --- | --- | --- | --- | --- | --- | --- | --- | --- | --- | --- |
| Cc1cc(=O)oc2cc(OCc3cn(CCO[C@H]4O[C@@H]5O[C@@]6(C)CC[C@H]7[C@H](C)CC[C@@H]([C@H]4C)[C@@]57OO6)nn3)ccc12 [12a, 7-(1-(2-(10β-Dihydroartemisininoxy)ethyl)-1H-1,2,3-triazol-4-yl)methoxy-4-methyl-2H-chromen-2-one] | 79 to 81 | 1.50 | 18.3 | 27.4 | 37.4 | 3.11 | 10.6 | 33 | 47.7 | 125 | 2.63 | – |
| CC(=O)Nc1nnc(S(N)(=O)=O)s1 [AAZ, acetazolamide] | – | – | – | – | – | – | – | – | – | – | – | > 100 |
| C[C@H]1[C@@H](OCCn2cc(COc3ccc4c(C(F)(F)F)cc(=O)oc4c3)nn2)O[C@@H]2O[C@@]3(C)CC[C@H]4[C@H](C)CC[C@@H]1[C@@]24OO3 [12b, 7-(1-(2-(10β-Dihydroartemisininoxy)ethyl)-1H-1,2,3-triazol-4-yl)methoxy-4-trifluoromethyl-2H-chromen-2-one] | 77 to 79 | 0.35 | 24.4 | 8.47 | 18.5 | 4.62 | 2.46 | 11.3 | 14.7 | 40.1 | 2.73 | – |
| CCOC(=O)c1cc2ccc(OCc3cn(CCO[C@H]4O[C@@H]5O[C@@]6(C)CC[C@H]7[C@H](C)CC[C@@H]([C@H]4C)[C@@]57OO6)nn3)cc2oc1=O [12e, Ethyl 2-oxo-7-(1-(2-(10β-dihydroartemisininoxy)ethyl)-1H-1,2,3-triazol-4-yl)methoxy-2H-chromene-3-carboxylate] | 71 to 73 | 1.62 | 35.7 | 57.9 | 69.5 | 1.88 | 20.8 | 39 | 65.1 | > 100 | 1.54 | – |
| Cc1c(C)c2ccc(OCc3cn(CCO[C@H]4O[C@@H]5O[C@@]6(C)CC[C@H]7[C@H](C)CC[C@@H]([C@H]4C)[C@@]57OO6)nn3)cc2oc1=O [12c, 7-(1-(2-(10β-Dihydroartemisininoxy)ethyl)-1H-1,2,3-triazol-4-yl)methoxy-3,4-dimethyl-2H-chromen-2-one] | 84 to 86 | 1.33 | 12.1 | 16 | 33.8 | 6.04 | 2.87 | 17.3 | 33.2 | > 100 | – | – |
| Cc1c(Cl)c(=O)oc2cc(OCc3cn(CCO[C@H]4O[C@@H]5O[C@@]6(C)CC[C@H]7[C@H](C)CC[C@@H]([C@H]4C)[C@@]57OO6)nn3)ccc12 [12d, 3-Chloro-7-(1-(2-(10β-dihydroartemisininoxy)ethyl)-1H-1,2,3-triazol-4-yl)methoxy-4-methyl-2H-chromen-2-one] | 76 to 78 | 2.71 | 5.86 | 15.9 | 62.3 | 6.16 | 3.63 | 22.4 | 43.5 | > 100 | 2.30 | – |

More lines, main results first:

| melting point [°C] | SMILES | HCT-116 Value = IC50(normoxia)/IC50(anoxia) [1] | IC50 [1, 6] [µM] | IC50 [1, 7] [µM] | IC50 [2] [µM] | HT-29 Value = IC50(normoxia)/IC50(anoxia) [3] | IC50 [3, 8] [µM] | IC50 [3, 9] [µM] | IC50 [4, 10] [µM] | IC50 [4, 11] [µM] | MDA-MB-231 Value = IC50(normoxia)/IC50(anoxia) [4] | IC50 at 96 h [5] [µM] |
| --- | --- | --- | --- | --- | --- | --- | --- | --- | --- | --- | --- | --- |
| 68 to 70 | Cc1c(C)c2ccc(OCc3cn(CCCO[C@H]4O[C@@H]5O[C@@]6(C)CC[C@H]7[C@H](C)CC[C@@H]([C@H]4C)[C@@]57OO6)nn3)cc2oc1=O [13c, 7-(1-(3-(10β-Dihydroartemisininoxy)propyl)-1H-1,2,3-triazol-4-yl)methoxy-3,4-dimethyl-2H-chromen-2-one] | 8.95 | 2.13 | 19.1 | 27.8 | 4.23 | 2.8 | 11.9 | 4.17 | 59.6 | 14.29 | – |
| 69 to 71 | C[C@H]1[C@@H](OCCCn2cc(COc3ccc4c(C(F)(F)F)cc(=O)oc4c3)nn2)O[C@@H]2O[C@@]3(C)CC[C@H]4[C@H](C)CC[C@@H]1[C@@]24OO3 [13b, 7-(1-(3-(10β-Dihydroartemisininoxy)propyl)-1H-1,2,3-triazol-4-yl)methoxy-4-trifluoromethyl-2H-chromen-2-one] | 7.43 | 2.75 | 20.4 | 21.4 | 3.74 | 5.31 | 19.8 | 26.6 | > 100 | 3.76 | – |
| 75 to 77 | Cc1cc(=O)oc2cc(OCc3cn(CCCO[C@H]4O[C@@H]5O[C@@]6(C)CC[C@H]7[C@H](C)CC[C@@H]([C@H]4C)[C@@]57OO6)nn3)ccc12 [13a, 7-(1-(3-(10β-Dihydroartemisininoxy)propyl)-1H-1,2,3-triazol-4-yl)methoxy-4-methyl-2H-chromen-2-one] | 2.95 | 9.65 | 28.5 | 26.2 | 4.30 | 6.4 | 27.5 | 36.1 | > 100 | 2.77 | – |
| 71 to 73 | Cc1c(Cl)c(=O)oc2cc(OCc3cn(CCCO[C@H]4O[C@@H]5O[C@@]6(C)CC[C@H]7[C@H](C)CC[C@@H]([C@H]4C)[C@@]57OO6)nn3)ccc12 [13d, 3-Chloro-7-(1-(3-(10β-Dihydroartemisininoxy)propyl)-1H-1,2,3-triazol-4-yl)methoxy-4-methyl-2H-chromen-2-one] | 41.38 | 0.43 | 18 | 31.5 | 1.87 | 4.68 | 8.76 | 3.62 | 72.5 | 20.03 | – |
| 79 to 81 | CCOC(=O)c1cc2ccc(OCc3cn(CCCO[C@H]4O[C@@H]5O[C@@]6(C)CC[C@H]7[C@H](C)CC[C@@H]([C@H]4C)[C@@]57OO6)nn3)cc2oc1=O [13e, Ethyl 2-oxo-7-(1-(3-(10β-dihydroartemisininoxy)propyl)-1H-1,2,3-triazol-4-yl)methoxy-2H-chromene-3-carboxylate] | 3.65 | 17.6 | 64.3 | 27.2 | 2.22 | 7.09 | 15.7 | 25.9 | 53.7 | 2.07 | – |
